# In patent US6060608A, “Analogs of CC-1065 and the duocarmycins” (The Scripps Research Institute, priority 1999, dated 2000):
# Several values for one entry are separate records, joined by “and”; a condition that tells them apart may be missing. Identical values can stand only once. Entries after “also recorded” stand apart in the source; their conditions may differ.
# Experiments:
# [1] = system: w794 DNA, 5'-AATTA high affinity site; assay: Relative rate of DNA alkylation at the w794 5'-AATTA high affinity site; format: biochemical, SV40; conditions: 10^-6 M, 25° C.
# Description: Rate of DNA Alkylation. The relative rates of DNA alkylation for the natural enantiommers of CCBI-TMI (35) and CCBI-indole2 (37) versus those of the corresponding CBI and MCBI agents were measured at the single high affinity site in w794, 5'-AATTA. The relative rates earlier studies of DNA alkylation for MCBI-TMI, CBI-TMI, and duocarmycin SA were determined to be quite similar at 4° C., 1.8:1.0:0.9, respectively. […] In prior studies, we have highlighted similar observations with agents that span a much larger range of relative reactivities.
# The DNA alkylation selectivity and efficiency of the natural enantiomers of 304-307 were compared with that of 1 in w794 DNA. […] These trends in the overall efficiency of DNA alkylation parallel the relative trends in cytotoxic potency.
# (§1) DNA Alkylation Relative Rate of (+)-CCBI-TMI (35), (+)-CBI-TMI, and (+)-MCBI-TMI. Following the procedure detailed above, Eppendorf tubes containing 5' end-labeled w794 DNA (9 μL) in TE buffer (pH 7.5) were treated with (+)-CCBI-TMI (35), (+)-CBI-TMI, or (+)-MCBI-TMI (1 μL, 10^-6 M in DMSO). The solutions were mixed and incubated at 25° C. for 2, 4, 6, 9, 12, 15, and 24 h, respectively. Subsequent isolation of the alkylated DNA by EtOH precipitation, resuspension in TE buffer (10 μL, pH 7.5), thermolysis (30 min, 100° C.), PAGE, and autoradiography were conducted as detailed above. Relative rates for alkylation at the w794 high-affinity 5'-AATTA site were derived from the slopes of the plots of percent integrated optical density (IOD) of the high-affinity alkylation cleavage bands versus time.
# as §1, with “(+)-CCBI-indole2 (37), (+)-CBI-indole2,” for “(+)-CCBI-TMI (35), (+)-CBI-TMI,”, “(+)-MCBI-indole2.” for “(+)-MCBI-TMI.”, “(+)-CCBI-indole2 (37), (+)-CBI-indole2, and (+)-MCBI-indole2” for “(+)-CCBI-TMI (35), (+)-CBI-TMI, or (+)-MCBI-TMI”
# [2] = system: w794 DNA, 5'-AATTA high affinity site; conditions: 4° C., earlier studies, 1.8:1.0:0.9; cited from earlier work
# [3] = in vivo; cited from earlier work
# L1210 = assay: In vitro cytotoxic activity, L1210; conditions: L1210
# calf thymus DNA = assay: DNA alkylation of calf thymus DNA, recovery of unreacted agent; format: biochemical; conditions: 37° C., 48-72 h, 1:51 agent:base-pair ratio
# Description: DNA Alkylation of Calf Thymus DNA. An aliquot of agent (5 μL, 0.01 M in DMSO) was added to a calf thymus DNA solution (0.45 mL, 3.79 mg/mL, 10 mM sodium phosphate, pH 7.0, base-pair:agent=51:1). The DNA-agent mixtures were incubated at 37° C. for 72 h for both enantiomers of 105, 106 and 107 or at 37° C. for 48 h for 108, 109, 110 and 111. For both enantiomers of 105, 106, 108 and 110, the unreacted materials were extracted with EtOAc (0.5 mL×4). The combined extracts were dried and dissolved in EtOAc (0.9 mL) and the quantities of 105, 106, 108, and 110 were determined by UV. Additional extraction with EtOAc (0.5 mL×4) was carried out, and the amounts of combined material were determined by UV. No additional material was recovered. For the ionic agents 107, 109 and 111, the unreacted materials were recovered from the supernatants of EtOH precipitation of the DNA. The EtOH in the supernatant was removed by a stream of N2. The supernatants were diluted to 0.9 mL with H2 O and the recovered quantities of 107, 109, and 111 were determined by UV.
# These studies were conducted alongside control reactions conducted in the absence of DNA. An aliquot of agent (5 μL, 0.01 M in DMSO) was added to sodium phosphate buffer (0.45 mL, 10 mM, pH 7.0). The agent-buffer mixtures were incubated at 37° C. for 72 h for both enantiomers of 105, 106 and 107 or at 37° C. for 48 h for 108, 109, 110 and 111. For 105, 106, 108 and 110, the materials were extracted with EtOAc (0.5 mL×4). The combined extracts were dried and dissolved in EtOAc (0.9 mL) and the agent quantities were determined by UV. For the ionic agents 107, 109 and 111, the agent-buffer mixtures were diluted to 0.9 mL with H2 O and their quantities were determined by UV.
# w794 duplex DNA = assay: DNA alkylation selectivity and efficiency within w794 DNA, thermally-induced strand cleavage and PAGE; format: biochemical, SV40; conditions: for DNA alkylation, failure to alkylate: 105-107: 37° C., 72 h, up to 10^-2 M, 108 and 110: 10^-3 M or lower
# Text: DNA Alkylation Selectivity and Efficiency. The DNA alkylation properties of the agents were examined within w794 duplex DNA, a 144 base-pair segment of duplex DNA for which comparative results are available for related agents. The alkylation site identification and the assessment of the relative selectivity among the available sites were obtained by thermally-induced strand cleavage of the singly 5' end-labeled duplex DNA after exposure to the agents. Following treatment of the end-labeled duplex DNA with a range of agent concentrations, the unbound agent was removed by EtOH precipitation of the DNA. Redissolution of the DNA in aqueous buffer, thermolysis (100° C., 30 min) to induce strand cleavage at the sites of DNA alkylation, denaturing high resolution polyacrylamide gel electrophoresis (PAGE) adjacent to Sanger dideoxynucleotide sequencing standards, and autoradiography led to identification of the DNA cleavage and alkylation sites. The DNA alkylation reaction selectivities observed under the incubation conditions for the agents detailed herein have proven identical to the alkylation selectivities observed with shorter or extended reaction periods or when the reactions were conducted at different temperatures (37 or 4° C., 0.5-7 d). As discussed below, the rates and efficiencies but not final relative efficiencies of DNA alkylation were altered by changing the reaction temperatures.
# DNA Alkylation Properties. […] The DNA alkylation reaction was examined within w794 DNA for which comparative results are available for past agents. The alkylation site identification was obtained by thermal strand cleavage of the singly 5' end-labeled duplex DNA after exposure to the agents. Following treatment of the labeled DNA with a range of agent concentrations, the unbound agent was removed by EtOH precipitation of the DNA. Redissolution of the DNA in aqueous buffer, thermolysis at 100° C. (30 min) to induce depurination and strand cleavage at the adenine N3 or guanine N3 minor groove alkylation sites, denaturing high resolution PAGE adjacent to Sanger sequencing standards and autoradiography provided the DNA cleavage and alkylation sites.
# DNA Alkylation Studies: selectivity and Efficiency. General procedures, the preparation of singly ^32 P 5' end-labeled double stranded DNA, the agent binding studies, gel electrophoresis, and autoradiography were conducted according to standard procedures. Eppendorf tubes containing the 5' end-labeled DNA (9 μL) in TE buffer (10 mM Tris, 1 mM EDTA, pH 7.5) were treated with the agent in DMSO (1 μL at the specified concentration). The solution was mixed by vortexing and brief centrifugation and subsequently incubated at 4 or 25° C. for 24 h (natural enantiomers) and 25 or 37° C. (unnatural enantiomers) for 72 h. The covalently modified DNA was separated from unbound agent by EtOH precipitation and resuspended in TE buffer (10 μL). The solution of DNA in an Eppendorf tube sealed with parafilm was warmed at 100° C. for 30 min to induce cleavage at the alkylation sites, allowed to cool to 25° C. and centrifuged. Formamide dye (0.03% xylene cyanol FF, 0.03% bromophenol blue, 8.7% Na2 EDTA 250 mM) was added (5 μL) to the supernatant. Prior to electrophoresis, the sample was denatured by warming at 100° C. for 5 min, placed in an icebath, and centrifuged, and the supernatant (3 μL) was loaded directly onto the gel. Sanger dideoxynucleotide sequencing reactions were run as standards adjacent to the reaction samples. Polyacrylamide gel electrophoresis (PAGE) was run on an 8% sequencing gel under denaturing conditions (8 M urea) in TBE buffer (100 mM Tris, 100 mM boric acid, 0.2 mM Na2 EDTA) followed by autoradiography.
# DNA Alkylation of w794 DNA. Eppendorf tubes containing the 5'-end labeled DNA (9 μL) in TE buffer (10 mM Tris, 1 mM EDTA, pH 7.2) were treated with the agent in DMSO (1 μL at the specified concentration). […]
compound,measurement,setting,value
"COc1cc2cc(C(=O)N3CC4CC45C3=CC(=O)c3ccccc35)[nH]c2c(OC)c1OC (single isomer, unassigned) [CBI-TMI]","relative rate of DNA alkylation, TMI series",[1],1.0 ×
same,relative rate of DNA alkylation,[2],1.0
"COc1ccc2c(c1)C13CC1CN(C(=O)c1cc4cc(OC)c(OC)c(OC)c4[nH]1)C3=CC2=O (single isomer, unassigned) [MCBI-TMI]","relative rate of DNA alkylation, TMI series",[1],1.9 ×
same,relative rate of DNA alkylation,[2],1.8
"COc1c(O)c2c(c3cc(C(=O)N4CCc5c4c(O)c(OC)c4[nH]c(C(=O)N6CC7CC78C6=CC(=O)c6[nH]cc(C)c68)cc54)[nH]c13)CCN2C(N)=O (single isomer, unassigned) [ent-(-)-CC-1065]",delayed toxicity,[3],has not been observed
"CSCCCNC(=O)c1csc(-c2csc(CCNC(=O)C(=O)N3CC(CCl)c4c3cc(O)c3ccccc43)n2)n1 (stereo not drawn) [compound 105, 3-[2'-(2-(2-(1-Chloromethyl-5-hydroxy-1,2-dihydro-3H-benz[e]indol-3-yl)-1,2-dioxoethyl)aminoethyl)-2,4'-bithiazole-4-carboxamido]propyl Methyl Sulfide]",cytotoxic potency in comparison with CBI building block or simple CBI derivatives,L1210,approached the cytotoxic potency of 114
same,DNA alkylation of calf thymus DNA,calf thymus DNA,recovered nearly quantitatively
"C[S+]([O-])CCCNC(=O)c1csc(-c2csc(CCNC(=O)C(=O)N3CC(CCl)c4c3cc(O)c3ccccc43)n2)n1 (stereo not drawn) [compound 106, 3-[2'-(2-(2-(1-Chloromethyl-5-hydroxy-1,2-dihydro-3H-benz[e]indol-3-yl)-1,2-dioxoethyl)aminoethyl)-2,4'-bithiazole-4-carboxamido]propyl Methyl Sulfoxide]",DNA alkylation of calf thymus DNA,calf thymus DNA,recovered nearly quantitatively
"CSCCCNC(=O)c1csc(-c2csc(CCNC(=O)CCC(=O)N3CC(CCl)c4c3cc(O)c3ccccc43)n2)n1 (stereo not drawn) [compound 108, 3-[2'-(2-(2-(1-Chloromethyl-5-hydroxy-1,2-dihydro-3H-benz[e]indol-3-yl)-1,4-dioxobutyl)aminoethyl)-2,4'-bithiazole-4-carboxamido]propyl Methyl Sulfide]","DNA alkylation, failure to alkylate",w794 duplex DNA,failed to alkylate DNA at concentrations of 10^-3 M or lower; also recorded: no reaction is observed
same,DNA alkylation of calf thymus DNA,calf thymus DNA,recovered nearly quantitatively
"C[S+](C)CCCNC(=O)c1csc(-c2csc(CCNC(=O)CCC(=O)N3CC(CCl)c4c3cc(O)c3ccccc43)n2)n1.[I-] (stereo not drawn) [compound 109, 3-[2'-(2-(4-(1-Chloromethyl-5-hydroxy-1,2-dihydro-3H-benz[e]indol-3-yl)-1,4-dioxobutyl)aminoethyl)-2,4'-bithiazole-4-carboxamido]propyl Dimethyl Sulfonium Iodide]","DNA alkylation properties, comparison in words",w794 duplex DNA,only slightly more effective than 116
same,DNA alkylation sequence selectivity,w794 duplex DNA,"5'-AA, 5'-TA and identical to that of N-BOC-CBI (123) and 116"
same,DNA alkylation of calf thymus DNA,calf thymus DNA,perceptible covalent attachment to the calf thymus DNA
"CSCCCNC(=O)c1csc(-c2csc(CCNC(=O)[C@@H](NC(=O)CCC(=O)N3CC(CCl)c4c3cc(O)c3ccccc43)[C@@H](C)O)n2)n1 (stereo partly drawn) [compound 110, 3-[2'-(2-((4-(1-Chloromethyl-5-hydroxy-1,2-dihydro-3H-benz[e]indol-3-yl)-1,4-dioxobutyl)-L-threonyl)aminoethyl)-2,4'-bithiazole-4-carboxamido]propyl Methyl Sulfide]","DNA alkylation, failure to alkylate",w794 duplex DNA,failed to alkylate DNA at concentrations of 10^-3 M or lower
same,DNA alkylation of calf thymus DNA,calf thymus DNA,recovered nearly quantitatively
"C[C@@H](O)[C@H](NC(=O)CCC(=O)N1CC(CCl)c2c1cc(O)c1ccccc21)C(=O)NCCc1nc(-c2nc(C(=O)NCCC[S+](C)C)cs2)cs1 (stereo partly drawn) [compound 111, 3-[2'-(2-((4-(1-Chloromethyl-5-hydroxy-1,2-dihydro-3H-benz[e]indol-3-yl)-1,4-diooxobutyl)-L-threonyl)aminoethyl)-2,4'-bithiazole-4-carboxamido]propyl Dimethyl Sulfonium Iodide]","DNA alkylation properties, comparison in words",w794 duplex DNA,only slightly more effective than 116
same,DNA alkylation sequence selectivity,w794 duplex DNA,"5'-AA, 5'-TA and identical to that of N-BOC-CBI (123) and 116"
same,DNA alkylation of calf thymus DNA,calf thymus DNA,perceptible covalent attachment to the calf thymus DNA
